For 5 compounds, inhibition and IC50 results are on record in patent US12403144B2, “HECT E3 ligase inhibitors and uses thereof” (IFOM FONDAZIONE ISTITUTO FIRC DI ONCOLOGIA MOLECOLARE, priority 2019, dated 2025).

What is called inhibition is the relative decrease from the control value, in per cent. By IC50 is commonly meant the concentration that inhibits the measured activity by half.

In assay [1] the target is T1, untagged HECT of NEDD4L (E3 ligase) (Homo sapiens, UniProt Q96PU5).
T1 construct: using untagged HECT of NEDD4L (E3 ligase) instead of untagged HECT of NEDD4 wild-type (WT) (E3 ligase); made in house; host or cells: bacteria (printed for the NEDD4L HECT of the western-blot assay; not repeated here)
T1 sequence (Q96PU5 594-975 limits assumed): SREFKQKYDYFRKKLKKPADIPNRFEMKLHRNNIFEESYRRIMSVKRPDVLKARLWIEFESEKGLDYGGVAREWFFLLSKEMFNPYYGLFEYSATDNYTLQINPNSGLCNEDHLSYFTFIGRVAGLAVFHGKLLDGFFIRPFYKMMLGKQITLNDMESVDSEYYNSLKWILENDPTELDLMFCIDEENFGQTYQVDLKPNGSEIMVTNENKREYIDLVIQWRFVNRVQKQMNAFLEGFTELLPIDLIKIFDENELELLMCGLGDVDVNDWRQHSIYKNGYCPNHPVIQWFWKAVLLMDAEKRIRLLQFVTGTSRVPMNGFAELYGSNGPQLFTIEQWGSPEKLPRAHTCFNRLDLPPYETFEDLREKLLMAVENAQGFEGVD
As to the kind of experiment: In vitro ubiquitination assay TR-FRET based, NEDD4L. The format is biochemical. The note with it: read-out: percentage of inhibition (NEDD4L). The procedure:
(§1) To determine the selectivity of identified NEDD4 inhibitors, it was quantitatively measured the self-ubiquitination process of the E3 HECT ligase belonging to NEDD4 family such as NEDD4L, HECW2 and ITCH in presence or not of some compounds such as 5, 9, 12, 29, 42, 45, 56, 58, 61, 77, 78, 85 and 94 employing TR-FRET based assays.
The assay was performed as described above in the paragraph titled “In vitro ubiquitination assay TR-FRET based” under the heading “2.1. NEDD4 UBIQUITINATION ASSAYS” using untagged HECT of NEDD4L (E3 ligase) instead of untagged HECT of NEDD4 wild-type (WT) (E3 ligase). In this case, final E1, E2 and E3 concentrations in the assay buffer (Tris-HCl pH 7.6 25 mM, NaCl 100 mM, MgCl2 5 mM and Tween 0.01%) were 30, 350 and 31.3 nanomolars, respectively. Untagged HECT NEDD4L (E3 ligase) enzyme was produced and purified as reported in E. Maspero et al. Methods Mol Biol. 1449:153-60 (2016) and in E. Maspero et al. EMBO Reports 12:342-349(2011).
(TR-FRET usually uses a lanthanide donor and a delayed reading to cut background.)

The target of assay [2] is T2, His-MPB tagged HECT of HECW2 (E3 ligase) (Homo sapiens, UniProt Q9P2P5).
T2 construct: using His-MPB tagged HECT of HECW2 (E3 ligase) instead of untagged HECT of NEDD4 wild-type (WT) (E3 ligase); made in house
T2 sequence (Q9P2P5 1237-1572 limits assumed): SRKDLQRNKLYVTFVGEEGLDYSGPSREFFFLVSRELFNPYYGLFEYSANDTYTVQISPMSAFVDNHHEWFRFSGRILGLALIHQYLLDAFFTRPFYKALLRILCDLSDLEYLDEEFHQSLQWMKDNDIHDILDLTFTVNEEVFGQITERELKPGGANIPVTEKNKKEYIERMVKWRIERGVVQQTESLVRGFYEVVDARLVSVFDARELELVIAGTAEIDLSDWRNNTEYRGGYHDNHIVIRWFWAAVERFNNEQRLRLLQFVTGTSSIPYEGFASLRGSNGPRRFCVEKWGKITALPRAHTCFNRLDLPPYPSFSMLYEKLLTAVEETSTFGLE
In words: In vitro ubiquitination assay TR-FRET based, HECW2. The note with it: read-out: percentage of inhibition (HECW2). The format is biochemical. The procedure: as §1
The assay was performed as described above in the paragraph titled “In vitro ubiquitination assay TR-FRET based” under the heading “2.1. NEDD4 UBIQUITINATION ASSAYS” using His-MPB tagged HECT of HECW2 (E3 ligase) instead of untagged HECT of NEDD4 wild-type (WT) (E3 ligase). In this case, final E1, E2 and E3 concentrations in the assay buffer (Tris-HCl pH 7.6 25 mM, NaCl 100 mM, MgCl2 5 mM and Tween 0.01%) were 30, 350 and 62.5 nanomolars, respectively. His-MPB tagged HECT of HECW2 (E3 ligase) enzyme was produced and purified as reported in E. Maspero et al. Methods Mol Biol. 1449:153-60 (2016) and in E. Maspero et al. EMBO Reports 12:342-349(2011).

Assay [3] deals with T3, untagged HECT of ITCH (E3 ligase) (Homo sapiens, UniProt Q96J02).
T3 construct: using untagged HECT of ITCH (E3 ligase) instead of untagged HECT of NEDD4 wild-type (WT) (E3 ligase); made in house
T3 sequence (Q96J02 569-903 limits assumed): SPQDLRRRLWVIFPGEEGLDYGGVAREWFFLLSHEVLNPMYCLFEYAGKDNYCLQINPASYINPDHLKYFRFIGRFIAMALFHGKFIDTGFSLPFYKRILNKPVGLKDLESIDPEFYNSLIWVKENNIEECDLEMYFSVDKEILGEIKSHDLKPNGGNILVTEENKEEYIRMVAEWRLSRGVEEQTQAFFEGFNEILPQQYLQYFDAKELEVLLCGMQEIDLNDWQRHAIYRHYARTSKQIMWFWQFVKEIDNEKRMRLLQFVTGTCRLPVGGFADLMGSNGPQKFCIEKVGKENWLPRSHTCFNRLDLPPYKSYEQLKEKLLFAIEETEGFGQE
In words: In vitro ubiquitination assay TR-FRET based, ITCH. The note with it: read-out: percentage of inhibition (ITCH). The format is biochemical. The procedure: as §1
The assay was performed as described above in the paragraph titled “In vitro ubiquitination assay TR-FRET based” under the heading “2.1. NEDD4 UBIQUITINATION ASSAYS” using untagged HECT of ITCH (E3 ligase) instead of untagged HECT of NEDD4 wild-type (WT) (E3 ligase). In this case, final E1, E2 and E3 concentrations in the assay buffer (Tris-HCl pH 7.6 25 mM, NaCl 100 mM, MgCl2 5 mM and Tween 0.01%) were 30, 350 and 60 nanomolars, respectively. Untagged HECT of ITCH (E3 ligase) enzyme was produced and purified as reported in E. Maspero et al. Methods Mol Biol. 1449:153-60 (2016) and in E. Maspero et al. EMBO Reports 12:342-349(2011).

The subject of another assay is DU145 cells. As to the kind of experiment: CellTiter-Glo Luminescent Cell Viability Assay, DU145. The format is cell-based. The note with it: Homo sapiens, DU-145; 48 hours incubation; mean of at least two determinations; read-out: DU145 IC50 μM (antiproliferative activity). The text has this:
CellTiter-Glo® Luminescent Cell Viability Assay (Promega, Catalog number: G7571) is a homogeneous method of determining the number of viable cells in culture based on quantitation of the present ATP, which indicates the presence of metabolically active cells. The homogeneous assay procedure involves addition of a single reagent (CellTiter-Glo® Reagent) directly to the cells, which leads to cell lysis and generation of a luminescent signal proportional to the amount of the ATP and the number of cells present in culture. The assay relies on the properties of a proprietary thermostable luciferase (Ultra-Glo® recombinant luciferase), which generates a luminescent signal.
DU145 cells (obtained from CLS Cell Lines Service GmbH item 300168) were grown in DMEM (Sigma Aldrich catalog number D6171-500 ml) supplemented with 10% Fetal Bovine Serum (Euroclone, catalog number. ECS0180L), 2 mM L-Glutamine (Euroclone catalog number LOBE17605F) and 100 U/ml penicillin-[…] streptomycin (EuroClone, ECB3001L). LNCaP cells (obtained from CLS Cell Lines Service GmbH item 300265) were grown in RPMI1640 (Lonza catalog number BE12-167F) supplemented with 10% Fetal Bovine Serum (Euroclone, catalog number. ECS0180L), 2 mM L-Glutamine (Euroclone catalog number LOBE17605F) and 100 U/ml penicillin-[…] streptomycin (EuroClone, ECB3001 L).
To determine the antiproliferative activity of the compounds, 3000 DU145 cells and 5000 LNCap cells were seeded in 96 multiwell plate (Sigma catalog number CLS9102) per well. 24 hours after seeding, the cells were incubated for 48 hours with different concentrations of the inhibitors (from 50 to 0 μM with a 3-fold dilution) dissolved in DMSO. After 48 hours, a volume of CellTiter-Glo® Reagent equal to the volume of cell culture medium was added. The content was mixed for 2 min to induce cell lysis. The luminescence was measured and recorded with Tecan Infinite 200 multimode plate reader after further 10 min at room temperature in order to obtain a stable luminescent signal.
The IC50 was calculated using GraphPad Software from the recorded luminescent signal.

Counter-ions that a name gives are not always drawn.

With `CCOC(=O)/C=C/CCNCCCN1c2ccccc2CCc2ccc(Cl)cc21` [Compound 5, Ethyl (E)-5-[3-(3-chloro-10,11-dihydro-5H-dibenzo[b,f]azepin-5-yl)propylamino]pent-2-enoate maleate], the inhibition at 11 µM in assay [1], in assay [2] and in assay [3] was under 15% in each case. Also, the IC50 in the assay on DU145 cells stood at 7.68 µM.

With `CCOC(=O)/C=C/CNCCCCN1c2ccccc2CCc2ccc(Cl)cc21.O=C(O)/C=C\C(=O)O` [Compound 12, Ethyl (E)-4-[4-(3-chloro-10,11-dihydro-5H-dibenzo[b,f]azepin-5-yl)butylamino]but-2-enoate maleate], the inhibition at 11 µM is under 15% in assay [1], under 5% in assay [2] and under 5% in assay [3]. In addition, the IC50 in the assay with DU145 cells came to 6.81 µM.

With `CONC(=O)/C=C/CN(C)CCCCN1c2ccccc2CCc2ccc(Cl)cc21` [Compound 85, (E)-4-[4-(3-Chloro-10,11-dihydro-5H-dibenzo[b,f]azepin-5-yl)butyl-methyl-amino]-N-methoxy-but-2-enamide maleate], the inhibition at 11 µM in assay [1] was under 5%; in assay [2], under 5%; in assay [3], under 25%. The IC50 in the assay on DU145 cells worked out at 11.3 µM.

Consider `CCOC(=O)/C=C/CNCCCCN1c2ccccc2C(=O)N(Cc2ccccc2)c2ccc(Cl)cc21` [Compound 45, Ethyl (E)-4-{[4-(10-benzyl-7-chloro-11-oxo-10,11-dihydro-5H-dibenzo[b,e][1,4]diazepin-5-yl)butyl]amino}but-2-enoate maleate], for which the values for the inhibition at 11 µM in assay [1], in assay [2] and in assay [3] were at most 20%, under 20% and under 5%, respectively. Besides, in the assay on DU145 cells, the IC50 was 4.97 µM.

With `CCOC(=O)/C=C/CNCCCCN1c2cc(Cl)ccc2C(=O)N(C)c2ccccc21` [Compound 42, Ethyl (E)-4-{[4-(3-chloro-10-methyl-11-oxo-10,11-dihydro-5H-dibenzo[b,e][1,4]diazepin-5-yl)butyl]amino}but-2-enoate maleate], the inhibition at 11 µM in assay [1], in assay [2] and in assay [3] was under 15% throughout. The IC50 in the assay with DU145 cells is 9.18 µM.
